Measured values reported in US20260028354A1, “TETRAHYDRONAPHTHALENE DERIVATIVES AS ESTROGEN RECEPTOR DEGRADERS” (REGENT OF THE UNIVERSITY OF MICHIGAN, priority 2022, published 2026).

Legend:
ER in MCF-7 cells = ER in MCF-7 cells (Homo sapiens (Human), UniProt P03372); experiment: In-cell Western (ICW) ER degradation assay in MCF-7 cells; type: cell-based; conditions: for Dmax: MCF7, read-out: MCF7 Dmax, MCF-7, maximal ER degradation, 16 hrs treatment; for DC50: MCF-7, ER degradation, 16 hrs treatment, read-out: MCF7 DC50
MCF-7 cells = experiment: CellTiter-Glo (CTG) cell proliferation assay in MCF-7 cells; type: cell-based; conditions: Homo sapiens, MCF7, 144 h, MCF-7 cell proliferation, Day 6
From the text: CellTiter-Glo® (CTG) Assays in MCF-7 and T47D Cell Lines.
In vitro Assay: MCF-7 and T47D CTG assay

Sequence of ER in MCF-7 cells (P03372 whole entry): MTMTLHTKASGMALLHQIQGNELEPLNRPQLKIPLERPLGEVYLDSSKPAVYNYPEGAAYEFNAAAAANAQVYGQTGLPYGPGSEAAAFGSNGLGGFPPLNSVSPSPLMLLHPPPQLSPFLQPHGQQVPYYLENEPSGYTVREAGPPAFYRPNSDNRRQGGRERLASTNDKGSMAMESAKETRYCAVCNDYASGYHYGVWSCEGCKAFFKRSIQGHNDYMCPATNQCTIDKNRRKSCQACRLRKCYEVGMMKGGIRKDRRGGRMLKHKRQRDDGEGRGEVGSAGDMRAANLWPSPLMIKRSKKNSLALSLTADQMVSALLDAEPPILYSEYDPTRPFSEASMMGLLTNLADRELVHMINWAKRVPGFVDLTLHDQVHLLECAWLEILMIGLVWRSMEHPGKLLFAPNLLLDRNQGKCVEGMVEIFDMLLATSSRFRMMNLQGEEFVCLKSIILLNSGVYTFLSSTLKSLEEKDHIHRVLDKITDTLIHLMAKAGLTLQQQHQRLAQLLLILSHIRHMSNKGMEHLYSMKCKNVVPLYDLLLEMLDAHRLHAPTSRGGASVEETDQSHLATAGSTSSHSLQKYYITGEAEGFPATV

SMILES | Dmax (ER in MCF-7 cells) [%] | DC50 (ER in MCF-7 cells) [nM] | IC50 (MCF-7 cells) [nM]
O=C1CC[C@H](N2Cc3cc4c(cc3C2=O)OCC42CCN(CC3CC4(CCN(c5cnc(C6c7ccc(O)cc7CCC6c6ccccc6)cn5)CC4)C3)CC2)C(=O)N1 (stereo partly drawn) [Compound A202, (3S)-3-(1′-((7-(5-(6-hydroxy-2-phenyl-1,2,3,4-tetrahydronaph-thalen-1-yl)pyrazin-2-yl)-7-azaspiro[3.5]nonan-2-yl)meth-yl)-7-oxo-5,7-dihydro-2H,6H-spiro[furo[2,3-f]isoindole-3,4′-piperidin]-6-yl)piperidine-2,6-dione] | 50 to 75 | < 1 | > 100
COc1c([C@@H]2c3ccc(O)cc3CC[C@@H]2c2ccccc2)ccc(N2CCC3(CC2)CC(CN2CCC4(CC2)COc2cc5c(cc24)CN([C@H]2CCC(=O)NC2=O)C5=O)C3)c1F [Compound A199, (S)-3-(1′-((7-(2-fluoro-4-((1S, 2S)-6-hydroxy-2-phenyl-1,2,3,4-tetrahydronaphthalen-1-yl)-3-methoxyphenyl)-7-aza-spiro[3.5]nonan-2-yl)methyl)-7-oxo-5,7-dihydro-2H,6H-spiro[furo[2,3-f]isoindole-3,4′-piperidin]-6-yl)piperidine-2,6-dione] | 50 to 75 | < 1 | < 10
COc1cc(N2CCC(CCN3CCC4(CC3)COc3cc5c(cc34)CN([C@H]3CCC(=O)NC3=O)C5=O)CC2)c(F)cc1[C@@H]1c2ccc(O)cc2CC[C@@H]1c1ccccc1 [Compound A189, (S)-3-(1′-(2-(1-(2-fluoro-4-((1S,2S)-6-hydroxy-2-phenyl-1,2,3,4-tetrahydronaphthalen-1-yl)-5-methoxyphenyl)piper-idin-4-yl)ethyl)-7-oxo-5,7-dihydro-2H,6H-spiro[furo[2,3-f]isoindole-3,4′-piperidin]-6-yl)piperidine-2,6-dione] | > 75 | < 1 | 10 to 100
COc1c([C@@H]2c3ccc(O)cc3CC[C@@H]2c2ccccc2)ccc(N2CCC(CN3CCC4(CC3)COc3cc5c(cc34)CN([C@H]3CCC(=O)NC3=O)C5=O)CC2)c1F [Compound A191, (S)-3-(1′-((1-(2-fluoro-4-((1S, 2S)-6-hydroxy-2-phenyl-1,2,3,4-tetrahydronaphthalen-1-yl)-3-methoxyphenyl)piper-idin-4-yl)methyl)-7-oxo-5,7-dihydro-2H,6H-spiro[furo[2,3-f]isoindole-3,4′-piperidin]-6-yl)piperidine-2,6-dione] | 50 to 75 | < 1 | 10 to 100
COc1cc(N2CCC3(CC2)CC(CN2CCC4(CC2)COc2c4cc(OC)c4c2CN([C@H]2CCC(=O)NC2=O)C4=O)C3)c(F)cc1[C@@H]1c2ccc(O)cc2CC[C@@H]1c1ccccc1 [Compound A222, (S)-3-(1′-((7-(2-fluoro-4-((1S,2S)-6-hydroxy-2-phenyl-1,2,3,4-tetrahydronaphthalen-1-yl)-5-methoxyphenyl)-7-azaspiro[3.5]nonan-2-yl)methyl)-5-methoxy-6-oxo-6,8-dihydro-2H,7H-spiro[furo[2,3-e]isoindole-3,4′-piperidin]-7-yl)piperidine-2,6-dione] | > 75 | < 1 | < 10
COc1cc(N2CC3(CCC(CN4CCC5(CC4)COc4nc(C(=O)N[C@H]6CCC(=O)NC6=O)ccc45)CC3)C2)c(F)cc1[C@@H]1c2ccc(O)cc2CC[C@@H]1c1ccccc1 [Compound A179, N-((S)-2,6-dioxopiperidin-3-yl)-1′-((2-(2-fluoro-4-((1S,2S)-6-hydroxy-2-phenyl-1,2,3,4-tetrahydronaphthalen-1-yl)-5-methoxyphenyl)-2-azaspiro [3.5]nonan-7-yl)methyl)-2H-spiro[furo[2,3-b]pyridine-3,4′-piperidine]-6-carboxamide] | > 75 | < 1 | > 100
